Each block holds one compound with its values, some of them ahead of it.
Assays:
CYP 2C9 = molecular target: T1, CYP 2C9 (Homo sapiens, UniProt P11712); assay: CYP inhibition in human liver microsome, 2C9; assay type: in vitro ADME; settings: human liver microsomes, substrate diclofenac, top 50 μM; read-out: CYP450 inhibition IC50 2C9
T1 construct: from tissue; host or cells: human liver microsomes
Procedure: (§1) Test compounds were evaluated for CYP inhibition using human liver microsomes (HLM). Test compounds were 1:3 serially diluted starting at 50 μM to generate 7 different concentrations. After incubation of diluted test compounds with HLM, a substrate cocktail composed of phenacetin (10 uM), amodiaquine (2 uM), diclofenac (5 uM), s-mephenytoin (30 uM), dextromethorphan (5 uM), and midazolam (2 uM) was added to check the remaining CYP activity for CYP 1A2, 2C8, 2C9, 2C19, 2D6 and 3A4. The CYP activity was measured by detecting the peak area of individual metabolites of know CYP substrates using LC/MS/MS. A percentage of inhibition of CYP was calculated at each final concentration of test compound, through which an IC50 was fitted to represent the inhibition potential.

CYP 1A2 = molecular target: T2, CYP 1A2 (Homo sapiens, UniProt P05177); assay: CYP inhibition in human liver microsome, 1A2; assay type: in vitro ADME; settings: human liver microsomes, substrate phenacetin, top 50 μM; read-out: CYP450 inhibition IC50 1A2
T2 construct: from tissue; host or cells: human liver microsomes
T2 sequence (P05177 1-516): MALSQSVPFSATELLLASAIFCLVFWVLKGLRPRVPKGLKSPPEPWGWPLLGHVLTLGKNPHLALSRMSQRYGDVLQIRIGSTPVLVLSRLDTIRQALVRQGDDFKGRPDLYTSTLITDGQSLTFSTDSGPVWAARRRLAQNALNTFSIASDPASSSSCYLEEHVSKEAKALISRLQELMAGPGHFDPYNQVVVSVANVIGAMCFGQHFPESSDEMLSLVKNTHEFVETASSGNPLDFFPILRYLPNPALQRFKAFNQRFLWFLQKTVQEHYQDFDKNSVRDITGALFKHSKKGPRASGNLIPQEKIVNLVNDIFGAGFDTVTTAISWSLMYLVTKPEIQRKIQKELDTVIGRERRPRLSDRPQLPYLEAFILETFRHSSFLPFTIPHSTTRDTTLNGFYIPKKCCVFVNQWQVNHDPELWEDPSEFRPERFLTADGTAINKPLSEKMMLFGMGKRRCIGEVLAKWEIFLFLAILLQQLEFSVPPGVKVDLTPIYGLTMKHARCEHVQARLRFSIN
Procedure: as §1

CYP 2C8 = molecular target: T3, CYP 2C8 (Homo sapiens, UniProt P10632); assay: CYP inhibition in human liver microsome, 2C8; assay type: in vitro ADME; settings: human liver microsomes, substrate amodiaquine, top 50 μM; read-out: CYP450 inhibition IC50 2C8
T3 construct: from tissue; host or cells: human liver microsomes
T3 sequence (P10632 1-490): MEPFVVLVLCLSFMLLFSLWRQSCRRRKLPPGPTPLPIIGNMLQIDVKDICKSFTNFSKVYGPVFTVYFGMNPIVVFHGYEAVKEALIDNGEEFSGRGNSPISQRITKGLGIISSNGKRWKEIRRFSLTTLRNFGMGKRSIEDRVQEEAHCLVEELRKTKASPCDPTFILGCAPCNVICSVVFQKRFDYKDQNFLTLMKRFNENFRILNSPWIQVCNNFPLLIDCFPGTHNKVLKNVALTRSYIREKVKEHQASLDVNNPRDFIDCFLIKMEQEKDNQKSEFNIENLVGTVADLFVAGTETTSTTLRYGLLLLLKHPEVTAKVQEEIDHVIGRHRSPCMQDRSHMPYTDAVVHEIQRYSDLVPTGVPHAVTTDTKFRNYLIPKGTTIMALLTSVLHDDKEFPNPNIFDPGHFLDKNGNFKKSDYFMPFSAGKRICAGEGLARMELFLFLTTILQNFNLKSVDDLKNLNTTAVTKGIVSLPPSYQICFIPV
Procedure: as §1

CYP 2C19 = molecular target: T4, CYP 2C19 (Homo sapiens, UniProt P33261); assay: CYP inhibition in human liver microsome, 2C19; assay type: in vitro ADME; settings: human liver microsomes, substrate s-mephenytoin, top 50 μM; read-out: CYP450 inhibition IC50 2C19
T4 construct: from tissue; host or cells: human liver microsomes
Procedure: as §1

C57BL/6cnc mice [1] = assay: Antifibrotic and fat reduction efficacy in NASH mouse model; assay type: in vivo; settings: for overall activity in the second NASH study, compounds compared / liver TC / liver TG / plasma LDL-c level / plasma TC level / ALT level / liver weight / LDL-c level: 1 mg/kg daily oral; for ALT level / liver weight: to normal range; for expression of DIO1 in liver: end of study
Procedure: C57BL/6cnc mice were fed with high-fat diet containing 60 kacl % fat and 0.10% methionine (no added choline) (Research Diets, A06071302) for 12 weeks to induce NASH model. After 12-week diet induction, the mice had increased plasma levels of TC, LDL-c, ALT, and fibrosis markers. Two studies were performed on this diet-induced NASH model with different compounds and treatment durations. […] Serum biochemistry was measured before dosing during study. At the end of the experiment, liver was collected to measure liver TC and TG. Livers were punched in 2 mm diameter and fixed, sectioned and stained with Sirius Red, and the fibrosis and steatosis were scored.

C57BL/6cnc mice [2] = assay: Cholesterol-lowering efficacy in trans-fat AMLN diet-induced hypercholesterolemia mouse model; assay type: in vivo; settings: for ALT / AST: AMLN diet mice, 0.3, 1, 3 mg/kg oral, 2 weeks, MGL-3196 effect at doses greater than 1 mg/kg; for LDL-c / liver TC / plasma TC: daily oral gavage 2 weeks, 0.3-3 mg/kg (Example 7) or 1 and 3 mg/kg; for efficacy in cholesterol reduction compared with MGL-3196: same dose
Procedure: C57BL/6cnc mice were fed with AMVLN diet containing 40 Kcal % Fat, 20 Kcal % Fructose and 2% Cholesterol (Research Diets, D09100301) for 5 weeks to induce hypercholesterolemia. The cholesterol lowering efficacy of compounds disclosed herein were tested in two separate studies. […] Thyroid hormone T3 (0.1 mg/kg, intraperitoneal injection) was evaluated as a positive control in both studies. The treatment lasted two weeks with daily oral gavage. Blood samples were taken before the dosing on the first day and again at the end of study for detection of plasma cholesterol (TC), triglycerides (TG) and LDL-c. […] At the end of study, the liver tissues were taken for measuring the hepatic TC and TG levels. The compound concentration was quantified in blood, liver and heart.

Thyroidectomized rats = assay: Heart safety evaluation in hypothyroid rat: heart rate; assay type: in vivo; settings: 100 mg/kg oral gavage, monitored for 1 hour, 10% change is normal noise
Procedure: SD Rats underwent thyroidectomy and recovered for 10 days. T3 and T4 were tested to confirm the complete thyroidectomy. […] Note that the dose for these compounds was […] higher than their therapeutic dose (1 mg/kg by oral gavage) in mouse models. For comparison, thyroid hormone T3 was also tested at 0.1 mg/kg with intraperitoneal injection. […] After 6 hours, the heart tissues were collected to quantitate the expression of α-MHC, a thyroid hormone responsive and THRα-target gene in heart.

[3] = first NASH study, 12 weeks, as early as 6 days after treatment

T4 sequence (P33261 whole entry): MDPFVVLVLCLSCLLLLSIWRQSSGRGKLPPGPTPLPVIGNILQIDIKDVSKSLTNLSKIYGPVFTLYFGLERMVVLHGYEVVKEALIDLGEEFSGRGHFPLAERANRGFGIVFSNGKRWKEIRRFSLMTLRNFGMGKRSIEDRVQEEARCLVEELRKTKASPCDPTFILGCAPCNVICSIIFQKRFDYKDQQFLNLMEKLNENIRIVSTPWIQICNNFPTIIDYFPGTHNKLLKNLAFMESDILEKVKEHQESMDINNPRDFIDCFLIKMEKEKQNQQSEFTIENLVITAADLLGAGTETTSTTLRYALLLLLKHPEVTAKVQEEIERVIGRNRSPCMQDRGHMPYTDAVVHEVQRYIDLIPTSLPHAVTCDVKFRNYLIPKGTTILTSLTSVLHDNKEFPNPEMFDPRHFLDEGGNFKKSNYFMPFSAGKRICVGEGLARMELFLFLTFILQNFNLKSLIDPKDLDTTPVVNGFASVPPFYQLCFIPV
T1 sequence (P11712 whole entry): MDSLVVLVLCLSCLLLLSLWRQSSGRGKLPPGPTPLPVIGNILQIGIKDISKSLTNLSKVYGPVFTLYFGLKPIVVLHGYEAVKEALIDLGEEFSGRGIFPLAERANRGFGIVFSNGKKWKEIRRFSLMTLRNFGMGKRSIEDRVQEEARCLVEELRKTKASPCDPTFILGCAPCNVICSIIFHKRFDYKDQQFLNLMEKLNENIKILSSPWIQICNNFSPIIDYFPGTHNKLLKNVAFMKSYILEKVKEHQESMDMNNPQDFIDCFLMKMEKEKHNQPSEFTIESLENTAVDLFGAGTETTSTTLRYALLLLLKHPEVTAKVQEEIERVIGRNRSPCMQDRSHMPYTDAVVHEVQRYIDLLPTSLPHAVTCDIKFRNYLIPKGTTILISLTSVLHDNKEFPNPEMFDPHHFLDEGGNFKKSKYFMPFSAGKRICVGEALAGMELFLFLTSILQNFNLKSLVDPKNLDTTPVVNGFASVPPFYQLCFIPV

SMILES: [2H]C([2H])([2H])C(c1cc(Oc2c(Cl)cc(-n3nc(C#N)c(=O)[nH]c3=O)cc2Cl)n[nH]c1=O)C([2H])([2H])[2H] [Example 7, 2-(3,5-dichloro-4-((6-oxo-5-(propan-2-yl-1,1,1,3,3,3-d6)-1,6-dihydropyridazin-3-yl)oxy)phenyl)-3,5-dioxo-2,3,4,5-tetrahydro-1,2,4-triazine-6-carbonitrile]
IC50 (CYP 2C9): 30.7 µM
IC50 (CYP 1A2): > 50 µM
IC50 (CYP 2C8): 7.56 µM
IC50 (CYP 2C19): > 50 µM
overall activity in the second NASH study, compounds compared (C57BL/6cnc mice [1]; 6 weeks): equivalent
liver TC (C57BL/6cnc mice [1]; first NASH study, 12 weeks): significantly decreased
liver TG (C57BL/6cnc mice [1]; first NASH study, 12 weeks): significantly decreased
plasma LDL-c level (C57BL/6cnc mice [1]; first NASH study, 12 weeks): reduced to normal range
plasma TC level (C57BL/6cnc mice [1]; [3]): reduced
ALT level (C57BL/6cnc mice [1]; first NASH study, 12 weeks): reduced
liver weight (C57BL/6cnc mice [1]; first NASH study, 12 weeks): reduced
fibrosis score (C57BL/6cnc mice [1]; first NASH study, Sirius Red histopathology, versus control group and MGL-3196-treated group): much lower
LDL-c level (C57BL/6cnc mice [1]; second NASH study, 6 weeks): reduced
liver TC (C57BL/6cnc mice [1]; second NASH study, 6 weeks): significantly decreased
liver TG (C57BL/6cnc mice [1]; second NASH study, 6 weeks): significantly decreased
plasma TC level (C57BL/6cnc mice [1]; second NASH study, 6 weeks): reduced
expression of DIO1 in liver (C57BL/6cnc mice [1]; second NASH study): significantly increased
ALT (C57BL/6cnc mice [2]): no effect
AST (C57BL/6cnc mice [2]): no effect
LDL-c (C57BL/6cnc mice [2]; AMLN diet mice): significantly reduced
liver TC (C57BL/6cnc mice [2]; AMLN diet mice): significantly reduced
plasma TC (C57BL/6cnc mice [2]; AMLN diet mice): significantly reduced
liver function safety compared with MGL-3196 (C57BL/6cnc mice [2]; AMLN diet mice, from ALT and AST): safer
efficacy in cholesterol reduction compared with MGL-3196 (C57BL/6cnc mice [2]; AMLN diet mice): comparable efficacy
heart rate change (Thyroidectomized rats): only mildly affected

IC50 (CYP 2C9): 18.8 µM
IC50 (CYP 1A2): > 50 µM
IC50 (CYP 2C8): 4.31 µM
IC50 (CYP 2C19): > 50 µM
SMILES: CC(C)c1cc(Oc2c(Cl)cc(-n3nc(C#N)c(=O)[nH]c3=O)cc2Cl)n[nH]c1=O [MGL-3196, reference compound]
liver TC (C57BL/6cnc mice [1]; first NASH study, 12 weeks): significantly decreased
liver TG (C57BL/6cnc mice [1]; first NASH study, 12 weeks): significantly decreased
plasma LDL-c level (C57BL/6cnc mice [1]; first NASH study, 12 weeks): reduced to normal range
plasma TC level (C57BL/6cnc mice [1]; [3]): reduced
ALT level (C57BL/6cnc mice [1]; first NASH study, 12 weeks): reduced
liver weight (C57BL/6cnc mice [1]; first NASH study, 12 weeks): reduced
ALT (C57BL/6cnc mice [2]): increased
AST (C57BL/6cnc mice [2]): increased
heart rate change (Thyroidectomized rats): only mildly affected

IC50 (CYP 2C9): 15.6 µM
IC50 (CYP 1A2): > 50 µM
IC50 (CYP 2C8): 3.08 µM
IC50 (CYP 2C19): > 50 µM
SMILES: C[C@@H]1CCc2c(Oc3c(Cl)cc(-n4nc(C#N)c(=O)[nH]c4=O)cc3Cl)n[nH]c(=O)c21 (single isomer, unassigned) [Example 41]
overall activity in the second NASH study, compounds compared (C57BL/6cnc mice [1]; 6 weeks): equivalent
LDL-c level (C57BL/6cnc mice [1]; second NASH study, 6 weeks): reduced
liver TC (C57BL/6cnc mice [1]; second NASH study, 6 weeks): significantly decreased
liver TG (C57BL/6cnc mice [1]; second NASH study, 6 weeks): significantly decreased
plasma TC level (C57BL/6cnc mice [1]; second NASH study, 6 weeks): reduced
expression of DIO1 in liver (C57BL/6cnc mice [1]; second NASH study): significantly increased
LDL-c (C57BL/6cnc mice [2]; AMLN diet mice): significantly reduced
liver TC (C57BL/6cnc mice [2]; AMLN diet mice): significantly reduced
plasma TC (C57BL/6cnc mice [2]; AMLN diet mice): significantly reduced
efficacy in cholesterol reduction compared with MGL-3196 (C57BL/6cnc mice [2]; AMLN diet mice): more effective
rank among the compounds in reducing the liver and plasma cholesterol (C57BL/6cnc mice [2]; AMLN diet mice, second study, 1 and 3 mg/kg): most effective
heart rate change (Thyroidectomized rats): no heart rate change

IC50 (CYP 2C9): 22.1 µM
IC50 (CYP 1A2): > 50 µM
IC50 (CYP 2C8): 4.24 µM
IC50 (CYP 2C19): > 50 µM
SMILES: [2H]c1c(Cl)c(Oc2cc(C(C([2H])([2H])[2H])C([2H])([2H])[2H])c(=O)[nH]n2)c(Cl)c([2H])c1-n1nc(C#N)c(=O)[nH]c1=O [Example 30, 2-(3,5-dichloro-4-((6-oxo-5-(propan-2-yl-1,1,1,3,3,3-d6)-1,6-dihydropyridazin-3-yl)oxy)phenyl-2,6-d2)-3,5-dioxo-2,3,4,5-tetrahydro-1,2,4-triazine-6-carbonitrile]
overall activity in the second NASH study, compounds compared (C57BL/6cnc mice [1]; 6 weeks): less potent
LDL-c level (C57BL/6cnc mice [1]; second NASH study, 6 weeks): reduced
plasma TC level (C57BL/6cnc mice [1]; second NASH study, 6 weeks): reduced
LDL-c (C57BL/6cnc mice [2]; AMLN diet mice): significantly reduced
liver TC (C57BL/6cnc mice [2]; AMLN diet mice): significantly reduced
plasma TC (C57BL/6cnc mice [2]; AMLN diet mice): significantly reduced
heart rate change (Thyroidectomized rats): no heart rate change

Reference: patent publication US12358899B2, “Thyroid hormone receptor agonists and uses thereof” (XIZANG HAISCO PHARMACEUTICAL CO., LTD., priority 2018, dated 2025)
